In patent publication US11684675B2, “Dimeric collagen hybridizing peptides and methods of using” (University of Utah Research Foundation, priority 2015, dated 2023):

Assays:
porcine gelatin = test: SPR gelatin capture by immobilized biotinylated CHPs; format: binding; conditions: gelatin 25 μg/mL
Method: FIGS. 7A and 7B show SPR data for porcine gelatin capture by immobilized CHPs. […] Gelatin was applied to the sensor surface during the association phase, followed by elution with blank during dissociation phase. Association occurred for 981 s, followed by dissociation for 1800 s. Values were normalized to a 100% biotin lane, and were adjusted to the mass of peptide immobilized in each well. (A) Preheated (80° C., 10 min), quenched (0° C., 30 s) gelatin (25 μg/mL) was applied to the sensor at an ambient temperature of 37° C. (B) Preheated (80° C., 10 min), quenched (0° C., 30 s) gelatin (25 μg/mL) was applied to the sensor at an ambient temperature of 15° C.
Surface Plasmon Resonance (SPR). […] However, there were major differences observed during the association phase. At 37° C., there was a much higher amount of gelatin adsorbed to all the peptides tested on the surface when compared to 15° C. […] At 15° C., gelatin adsorbed to the surface at a much slower rate. […] However, this lower adsorption rate can be due to a reduced diffusion rate near the surface or a more condensed gelatin structure at this lower temperature.
Dimeric CHP is able to hybridize effectively with denatured collagens with faster folding kinetics than current, monomeric CHPs. Surface plasmon resonance (SPR) was used to measure the ability of the CHPs to trap denatured collagen from solution.

[1] = tested on: crosslinked gelatin films; test: Binding of CF-labelled CHPs to crosslinked gelatin films at 37° C. with and without preheating; design: species or system porcine; conditions: 20 μM, 37° C. overnight, PBS wash 20 h, FIG. 6C
Method: FIGS. 3A and 3B show the affinity of CHPs to gelatin films as monitored by fluorescence of conjugated CF fluorophore (492 ex, 533 em). (A) Fluorescence of CHPs bound to crosslinked gelatin after incubation at 37° C. overnight with no workup. (B) Fluorescence of CHPs remaining in crosslinked gelatin after incubation at 37° C. overnight without preheating, followed by washing with 1×PBS at 37° C. (20 h).
(A) Fraction of peptide remaining in a crosslinked gelatin film after 17 h at 25° C. (10 total washes). Values are normalized to fluorescence remaining in wells after 6 washes at 4° C. (>95% removal of CHPs 9r, 6r, and 5r). All washes performed in 1×PBS. (B) CHPs (15 μM) premixed into 10% porcine gelatin and preheated to 80° C. (10 min) before being added to a 96 well plate. Excess CHP-gelatin mixture was removed, then the premix was incubated at 4° C. for 2 hours. Wells were washed at 4° C., 5 times (>95% removal of CHPs 9r, 6r, and 5r). Wells were then washed for 2 hours (6 washes total) at 25° C. to monitor CHP remaining in the well. (C) Fluorescence of CHPs remaining in crosslinked gelatin after incubation at 37° C. overnight without preheating, followed by washing with 1×PBS at 37° C. (20 h). (D) Fluorescence of CHPs remaining in crosslinked gelatin after incubation at 37° C. overnight (80° C. preheating, 10 min), followed by washing with 1×PBS at 37° C. (20 h).
Dimeric CHPs were assessed for their ability to bind to collagen strands in crosslinked gelatin films. CHP solutions (20 μM in PBS) were added directly to the crosslinked gelatin films. For heated experiments, CHPs were preheated to 80° C. for 10 minutes before addition. Peptides were allowed to fully equilibrate with the gel at 37° C. overnight before being exposed to repeated washes (4×, PBS) at 37° C. to fully remove any non-specifically bound peptide and to determine binding level at body temperature. To measure retention, peptides were bound as previously described, but were subsequently washed with PBS 37° C. (5×1 h, 1×12 h) to measure retention within the gelatin films. […] Additionally, after a period of 20 hours, higher level of the dimeric CHP remained in the gelatin compared to the monomeric CHP.
A major limitation of the use of CHP in vivo, is the requirement of the triple helix to be fully disassembled before being injected. […] For this test, peptide solutions were allowed to warm to room temperature before being added (50 μL, 20 μM) to previously prepared crosslinked gelatin films. Solutions were then incubated at 37° C. overnight before removing the solution. Wells were washed at 37° C. with PBS (20 h) to determine binding. Preheated samples were prepared and incubated in the same way, but with preheating (80° C., 10 min) before being added to the crosslinked gelatin wells.

[2] = Triple helix melting point (Tm) by circular dichroism at 225 nm; format: physicochemical; conditions: for Tm (° C.): triple helix melting
Method: FIGS. 5A, 5B, 5C, and 5D show the thermal denaturation of fully assembled CHPs and subsequent cooling to initial temperature. Samples were heated at 1° C./min from their initial temperature final temperature of 90° C. Sample was then cooled at 1° C./min to the starting temperature. (A) Thermal denaturation and partial reassembly of CHP CF-6d (150 μM) monitored at 225 nm. Sample was measured from 4° C. to 90° C. (B) Thermal denaturation and partial reassembly of CHP […] (75 μM, corresponding to 150 μM strand concentration) monitored at 225 nm. Sample was measured from 4° C. to 90° C. (C) Thermal denaturation and partial reassembly of CHP CF-9 (150 μM) monitored at 225 nm. Sample was measured from 10° C. to 90° C. (D) Thermal denaturation and partial reassembly of CHP CF-9d (75 μM, corresponding to 150 μM strand concentration) monitored at 225 nm. Sample was measured from 10° C. to 90° C.
FIGS. 11A and 11B show the First Derivative of mean residue ellipticity (MRE) at 225 nm in CD. […] There is no significant change in melting point between the monomeric and dimeric forms of the same peptide.
Circular Dichroism: Circular Dichroism (CD) was measured for all peptides at 225 nm. Melting curves were taken on peptides between 10 and 80° C. at a heating rate of 0.5° C./min, with pauses at each 1° C. Refolding experiments were performed after peptide solutions were incubated at 4° C. for at least 12 hours. Concentrations were normalized to strand concentration.

## [(GPO)6G3)2KG [6d]
Porcine gelatin; 15° C.
  ability to bind gelatin: only able to bind gelatin at a rate comparable to the monomeric CHPs
Porcine gelatin; 37° C.
  ability to bind gelatin: higher ability to bind gelatin than that of an equivalent number of strands in their monomeric counterparts
[1]
  binding to gelatin wells at 37° C. without preheating: bind more significantly than the GPO9 monomer without preheating
[2]; Example 3
  melting point: 38 °C
[2]; Table 1
  Tm (° C.): 38 (SEQ ID NO: 58) ° C.
[2]; Table 2
  Tm (° C.): 38 (SEQ ID NO: 58) ° C.
